The subject of one assay is HBsAg. Briefly: HBsAg assay: inhibition of HBsAg in HepG2.2.15 cells (chemiluminescence immunoassay of supernatant). Type of assay: cell-based, hepatitis B virus. Particulars: Hepatitis B virus, HepG2.2.15, 144 h, read-out: sAg EC50, HepG2.2.15 cells; HBsAg in supernatant at day 6 after exposure to compound; 0.5% DMSO. Summed up:
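Secreted HBsAg quantified by CLIA in day-6 supernatants of HepG2.2.15 cultures given compound dilutions at 0.5% final DMSO, with one compound/medium replenishment after 2–3 days. Dose-response fits gave EC50 (50% inhibition); viability checked separately by CellTiter-Glo.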
With `CO[C@H]1CN(c2cc(C3CC3c3cnc(-c4ncccn4)nc3)cc(F)c2F)C[C@H]1OC` (relative stereo) [Example 235, trans-5-(2-(3-((3R,4S)-3,4-Dimethoxypyrrolidin-1-yl)-4,5-difluorophenyl)cyclopropyl)-2,2′-bipyrimidine], the EC50 is 39 nM.

As to `Fc1ccc([C@@H]2C[C@H]2c2cnc(-c3ncccn3)nc2)c2cccnc12` (relative stereo) [Example 172, trans-5-(2-([2,2′-Bipyrimidin]-5-yl)cyclopropyl)-8-fluoroquinoline], the EC50 turned out to be 250 nM.

As to `COCCCn1ncc2c(F)cc([C@@H]3C[C@H]3c3cnc(-c4ncccn4)nc3)cc21` (relative stereo) [Example 275, trans-6-(2-([2,2′-Bipyrimidin]-5-yl)cyclopropyl)-4-fluoro-1-(3-methoxypropyl)-1H-indazole], the EC50 was determined as 75 nM.

Consider `COc1ccc(C2CC2c2cnc(-c3ncccn3)nc2)c(F)c1` (single isomer, unassigned) [Example 3, trans-5-(2-(2-Fluoro-4-methoxyphenyl)cyclopropyl)-2,2′-bipyrimidine], for which the EC50 was determined as 190 nM.

In the case of `CC(C)(C)S(=O)(=O)C1CN(c2cc([C@@H]3C[C@H]3c3cnc(-c4ncccn4)nc3)cc(F)c2F)C1` (relative stereo) [Example 211, trans-5-(2-(3-(3-(tert-Butylsulfonyl)azetidin-1-yl)-4,5-difluorophenyl)cyclopropyl)-2,2′-bipyrimidine], the EC50 was 110 nM.

Consider `COc1cc(F)ccc1[C@@H]1C[C@H]1c1cnc(-c2ncccn2)nc1` (relative stereo) [Example 7, trans-5-(2-(4-Fluoro-2-methoxyphenyl)cyclopropyl)-2,2′-bipyrimidine], for which the EC50 came to 370 nM.

Regarding `COc1ccc(C2CN(c3cc([C@@H]4C[C@H]4c4cnc(-c5ncccn5)nc4)cc(F)c3F)C2)cc1OC` (relative stereo) [Example 216, trans-5-(2-(3-(3-(3,4-Dimethoxyphenyl)azetidin-1-yl)-4,5-difluorophenyl)cyclopropyl)-2,2′-bipyrimidine], the 50% effective concentration (EC50) was found to be 25 nM.

As for `Fc1cc([C@@H]2C[C@H]2c2cnc(-c3ncccn3)nc2)cc(F)c1OCCCN1CCOCC1` (relative stereo) [Example 241, trans-4-(3-(4-(2-([2,2′-Bipyrimidin]-5-yl)cyclopropyl)-2,6-difluorophenoxy)propyl)morpholine], the EC50 came out at 830 nM.

Turning to `OC1CC2(C1)CN(c1cc([C@@H]3C[C@H]3c3cnc(-c4ncccn4)nc3)cc(F)c1F)C2` (relative stereo) [Example 238, trans-2-(5-(2-([2,2′-Bipyrimidin]-5-yl)cyclopropyl)-2,3-difluorophenyl)-2-azaspiro[3.3]heptan-6-ol], the EC50 stood at 53 nM.

Consider `COc1cc(C2CC2c2cnc(-c3ncccn3)nc2C)ccc1F` (single isomer, unassigned) [Example 17, trans-5-(2-(4-Fluoro-3-methoxyphenyl)cyclopropyl)-4-methyl-2,2′-bipyrimidine], for which the EC50 stood at 650 nM.

`CN(CCO)c1cc([C@@H]2C[C@H]2c2cnc(-c3ncccn3)nc2)cc(F)c1F` (relative stereo) [Example 244, trans-2-((5-(2-([2,2′-Bipyrimidin]-5-yl)cyclopropyl)-2,3-difluorophenyl)(methyl)amino)ethan-1-ol]: the EC50 was 92 nM.

As to `Cn1ccc(COc2cc([C@@H]3C[C@H]3c3cnc(-c4ncccn4)nc3)cc(F)c2F)n1` (relative stereo) [Example 219, trans-5-(2-(3,4-Difluoro-5-((1-methyl-1H-pyrazol-3-yl)methoxy)phenyl)cyclopropyl)-2,2′-bipyrimidine], the EC50 was found to be 96 nM.

As for `Fc1cc(C2CC2c2cnc(-c3ncccn3)nc2)cc(N2CCCC2)c1Cl` (single isomer, unassigned) [Example 90, trans-5-(2-(4-Chloro-3-fluoro-5-(pyrrolidin-1-yl)phenyl)cyclopropyl)-2,2′-bipyrimidine], the EC50 came to 28 nM.

For the molecule `COc1cccnc1-c1ncc([C@@H]2C[C@H]2c2cc(F)c(F)c(OC)c2)cn1` (relative stereo) [Example 180, trans-5-(2-(3,4-Difluoro-5-methoxyphenyl)cyclopropyl)-2-(3-methoxypyridin-2-yl)pyrimidine], the EC50 was 1000 nM.

Turning to `COc1cc(C2CN(c3cc([C@@H]4C[C@H]4c4cnc(-c5ncccn5)nc4)cc(F)c3F)C2)ccc1F` (relative stereo) [Example 215, trans-5-(2-(3,4-Difluoro-5-(3-(4-fluoro-3-methoxyphenyl)azetidin-1-yl)phenyl)cyclopropyl)-2,2′-bipyrimidine], the EC50 was 70 nM.

Still in this assay, the particulars now being: read-out: sAg EC50; HepG2.2.15 cells; HBsAg in supernatant at day 6 after exposure to compound; 0.5% DMSO.
Regarding `COc1cc(C2CC2c2cnc(-c3ncccn3)nc2)cc(OC)c1F` (single isomer, unassigned) [Example 147, trans-5-(2-(4-Fluoro-3,5-dimethoxyphenyl)cyclopropyl)-2,2′-bipyrimidine], the concentration giving a half-maximal response (EC50) was found to be 10000 nM.

Consider `COc1cc(C2CC2c2cnc(-c3ncccn3)nc2)cc(Cl)c1F` (single isomer, unassigned) [Example 149, trans-5-(2-(3-Chloro-4-fluoro-5-methoxyphenyl)cyclopropyl)-2,2′-bipyrimidine], for which the EC50 was 62 nM.

Consider `Fc1cc(C2CC2c2cnc(-c3ncccn3)nc2)cc(N2CCC3(COC3)C2)c1F` (single isomer, unassigned) [Example 223, trans-6-(5-(2-([2,2′-Bipyrimidin]-5-yl)cyclopropyl)-2,3-difluorophenyl)-2-oxa-6-azaspiro[3.4]octane], for which the EC50 was determined as 10 nM.

`COc1cc(C2CC2c2cnc(-c3ncccn3)nc2)cc(C)c1F` (single isomer, unassigned) [Example 150, trans-5-(2-(4-Fluoro-3-methoxy-5-methylphenyl)cyclopropyl)-2,2′-bipyrimidine]: the EC50 stood at 1000 nM.

`COc1cc(C2CC2c2ccc(-c3ncccn3)nn2)ccc1F` (single isomer, unassigned) [Example 191, trans-3-(2-(4-Fluoro-3-methoxyphenyl)cyclopropyl)-6-(pyrimidin-2-yl)pyridazine]: the EC50 is 2000 nM.

In the case of `Fc1cn(-c2cc(C3CC3c3cnc(-c4ncccn4)nc3)cc(F)c2F)cc1F` (single isomer, unassigned) [Example 257, trans-5-(2-(3-(3,4-Difluoro-1H-pyrrol-1-yl)-4,5-difluorophenyl)cyclopropyl)-2,2′-bipyrimidine], the concentration for a half-maximal effect (EC50) stood at 140 nM.

For `Fc1ccc(C2CC2c2cnc(-c3ncccn3)nc2)cc1OCC1CC1` (single isomer, unassigned) [Example 25, trans-5-(2-(3-(Cyclopropylmethoxy)-4-fluorophenyl)cyclopropyl)-2,2′-bipyrimidine], the EC50 was determined as 270 nM.

On to `COC1CN(c2cc(C3CC3c3cnc(-c4ncccn4)nc3)ccc2F)C1` (single isomer, unassigned) [Example 47, trans-5-(2-(4-Fluoro-3-(3-methoxyazetidin-1-yl)phenyl)cyclopropyl)-2,2′-bipyrimidine], for which the EC50 came out at 370 nM.

On to `COc1cc(C2CC2c2cnc(-c3ncccn3)nc2N2CCCCC2)ccc1F` (single isomer, unassigned) [Example 144, trans-5-(2-(4-Fluoro-3-methoxyphenyl)cyclopropyl)-4-(piperidin-1-yl)-2,2′-bipyrimidine], for which the EC50 worked out at 25000 nM.

Take `CN1CCN(c2cc(C3CC3c3cnc(-c4ncccn4)nc3)ccc2F)CC1` (single isomer, unassigned) [Example 188, trans-5-(2-(4-Fluoro-3-(4-methylpiperazin-1-yl)phenyl)cyclopropyl)-2,2′-bipyrimidine]: the EC50 amounted to 4000 nM.

`Fc1cc(C2CC2c2cnc(-c3ncccn3)nc2)cc(OCC2CC2)c1F` (single isomer, unassigned) [Example 129, trans-5-(2-(3-(Cyclopropylmethoxy)-4,5-difluorophenyl)cyclopropyl)-2,2′-bipyrimidine]: the EC50 is 18 nM.

`COC1CN(c2cc([C@@H]3C[C@H]3c3cnc(-c4ncccn4)nc3)cc(F)c2F)C1` (single isomer, unassigned) [Example 123, trans-5-(2-(3,4-Difluoro-5-(3-methoxyazetidin-1-yl)phenyl)cyclopropyl)-2,2′-bipyrimidine]: the EC50 worked out at 12 nM.

Regarding `COc1cc(C2CC2c2cnc(-c3ncccn3)nc2)cc(C)c1Cl` (single isomer, unassigned) [Example 58, trans-5-(2-(4-Chloro-3-methoxy-5-methylphenyl)cyclopropyl)-2,2′-bipyrimidine], the EC50 was found to be 290 nM.

Take `COc1cc(C2CC2c2cnc(-c3ncccn3)nc2)cc(N2CCCC2)c1F` (single isomer, unassigned) [Example 101, trans-5-(2-(4-Fluoro-3-methoxy-5-(pyrrolidin-1-yl)phenyl)cyclopropyl)-2,2′-bipyrimidine]: the EC50 is 800 nM.

As to `COc1cc(C2CC2c2cnc(-c3ncccn3)nc2)c(Cl)cc1Cl` (single isomer, unassigned) [Example 89, trans-5-(2-(2,4-Dichloro-5-methoxyphenyl)cyclopropyl)-2,2′-bipyrimidine], the EC50 stood at 610 nM.

Take `CN(C)c1cc(C2CC2c2cnc(-c3ncccn3)nc2)ccc1F` (single isomer, unassigned) [Example 64, trans-5-(2-([2,2′-Bipyrimidin]-5-yl)cyclopropyl)-2-fluoro-N,N-dimethylaniline]: the EC50 amounted to 3000 nM.

Regarding `Fc1ccc(C2CC2c2cnc(-c3ncccn3)nc2)cc1Cl` (single isomer, unassigned) [Example 30, trans-5-(2-(3-Chloro-4-fluorophenyl)cyclopropyl)-2,2′-bipyrimidine], the EC50 came out at 80 nM.

For `COc1cc(C2CC2c2cnc(-c3ncccn3)nc2)c(-c2ccccc2)cc1Cl` (single isomer, unassigned) [Example 159, trans-5-(2-(5-Chloro-4-methoxy-[1,1′-biphenyl]-2-yl)cyclopropyl)-2,2′-bipyrimidine], the EC50 came to 49000 nM.

Usually EC50 stands for the concentration at which the effect is half-maximal.

The values above are taken from patent publication US20230083973A1, “SUBSTITUTED CYCLOPROPYL-2,2'-BIP[…], ANALOGUES THEREOF, AND METHODS USING SAME” (priority 2019, published 2023).
